Assay: xn = mol fraction of the nth substance listed
Conditions: 101 kPa; for viscosity: 298.1 K; for electrical conductivity: 298.15 K

SMILES	viscosity (x1 = 1) [mPa·s]	electrical conductivity (x1 = 1) [S/m]	viscosity (x2 = 0) [mPa·s]	viscosity (x2 = 0.2164) [mPa·s]	viscosity (x2 = 0.3218) [mPa·s]	viscosity (x2 = 0.474) [mPa·s]	electrical conductivity (x2 = 0) [S/m]	electrical conductivity (x2 = 0.0448) [S/m]	electrical conductivity (x2 = 0.2164) [S/m]	electrical conductivity (x2 = 0.3218) [S/m]	electrical conductivity (x2 = 0.474) [S/m]	electrical conductivity (x2 = 0.6254) [S/m]	electrical conductivity (x2 = 0.7856) [S/m]	electrical conductivity (x2 = 0.9447) [S/m]
CC[n+]1ccn(C)c1.F[B-](F)(F)F + CC[n+]1ccn(C)c1.N#C[N-]C#N	36.8	1.55	–	–	–	–	–	–	–	–	–	–	–	–
CC[n+]1ccn(C)c1.N#C[N-]C#N + CC[n+]1ccn(C)c1.F[B-](F)(F)F	–	–	17.4	19.7	21.4	23	2.83	2.79	2.61	2.49	2.3	2.1	1.87	1.64
